What was measured:
[1] = Oral bioavailability and isomer interconversion of R and S isomers at C* in rats; parameters: species or system male Sprague Dawley rats; settings: rat; for bioavailability / half-life: 30 mg/kg
Experimental: Three groups of male Sprague Dawley rats (n=6-7/group) were orally administered a compound of formula I wherein the mixture comprised about 92% R isomer at position C* and about 8% S isomer at position C*; a mixture that was about 7% R isomer at position C* and about 93% S isomer at position C*; or a compound of formula I wherein the mixture was about 54% R isomer at position C* and about 46% S isomer at position C*; at a nominal dose of 30 mg/kg. Serial blood samples were collected up to 24 hours (hr) post dose. Derived plasma samples (100 μL) were acidified by the addition of 5 μL of formic acid to prevent in vitro interconversion. The determination of concentrations of both the R isomer and the S isomer, at position C*, in plasma and in dose solutions was conducted using a chiral liquid chromatography/mass spectrometry (LC/MS/MS, e.g., LC/tandem mass spectroscopy) method. The formulations of the solid dispersions containing either 10% of the R:S mixture, the R isomer, or the S isomer were prepared according to Table 4. […] The sodium lauryl sulfate and PVP were added to the flask containing the drug solution and were then mixed until dissolved. The mixtures were dried under Roto-vap for about 15 min. After a dry powder was obtained, the solid was then scraped from the flask and transferred to a glass container. The solid was dried for 24 hr at 55° C. in a vacuum oven with nitrogen bleed. The dry solid was then milled by mortar and pestle and was stored in a tightly capped vial. […] Male Sprague Dawley rats (Charles River Laboratories, Kingston, R.I.; n=6-7/group) were used in the study. The day before dosing, the rats were cannulated in the carotid artery for collecting blood samples. […] The experiments were performed with a parallel study design as 6 separate single dose studies as described in Table 5. […] The blood samples were collected in tubes containing potassium EDTA and were centrifuged to plasma within 15 min of collection. A diluted solution of formic acid was prepared by diluting 1 mL of formic acid with 9 mL of water. A total of 5 micro liters (μL) of this diluted formic acid was placed into each plasma tube. An aliquot of plasma (100 μL per tube) was placed into appropriately labeled tubes containing the formic acid, and the acidified plasma was stored frozen at −70° C. until analysis. The acidification step was implemented to prevent in vitro interconversion. Referring to Table 6, several bioavailability parameters for compounds undergoing reversible metabolism could be estimated by the following descriptions.

in vivo = settings: male, Sprague-Dawley, rat, iv
Experimental: The intravenous pharmacokinetics of compounds of formula I were evaluated in rats and dogs. A group of 3 male Sprague-Dawley rats weighing between 250 to 300 g was administered an intravenous bolus dose of 0.95 mg/kg of an S-diastereomer of formula I, in a vehicle consisting of 15% ethanol, 10% dimethyl isosorbide, 35% PEG400 and 40% D5W (5% dextrose in water). Serial blood samples were collected in heparinized tubes at 0 (pre-dose), 0.083, 0.167, 0.25, 0.5, 1, 1.5, 2, 3, 4, 6, and 8 h, post-dose administration. […] For oral studies in rats and dogs, an S-diastereomer compound of formula I was formulated in polyvinylpyrrolidone (PVP) K30 plus 2% sodium lauryl sulfate and then dosed as an oral gavage. A group of 3 male Sprague-Dawley rats (250 to 300 g, Harlan, Md.) was dosed orally with 40 mg/kg of the compound, and a group of 3 male Beagle dogs (10.9-12.0 kg) was administered an oral dose of 13.2 mg/kg of the compound. In both oral studies, blood samples were taken at pre-dose, 0.25, 0.5, 1, 1.5, 2, 3, 4, 6, 8, 12, and 24 h following dose administration. […] Samples obtained from the rat intravenous study were subjected to a chiral liquid chromatography/mass spectrometry (LC/MS/MS) analysis, while samples of all other studies were analyzed using a non-chiral LC/MS/MS method. […]

SMILES | FR+SR, estimated total bioavailability based on combined exposure to the R and S isomers following a dose of the R isomer ([1]; male, Sprague Dawley, in vivo) | mean (±SD) Tmax for the R isomer ([1]; male, Sprague Dawley, in vivo) | bioavailability ([1]; male, Sprague Dawley, in vivo) | half-life ([1]; male, Sprague Dawley, in vivo) | in vivo isomer conversion at position C* (R to S versus S to R) [1] | half-life (in vivo) | DN AUCINF of the S isomer ([1]; male, Sprague Dawley, in vivo) | mean (±SD) Tmax for the S isomer ([1]; male, Sprague Dawley, in vivo)
CCC[C@@H](NC(=O)[C@@H]1[C@H]2CCC[C@H]2CN1C(=O)[C@@H](NC(=O)[C@@H](NC(=O)c1cnccn1)C1CCCCC1)C(C)(C)C)C(=O)C(=O)NC1CC1 [R isomer at C*, (1S,3aR,6aS)-2-[(2S)-2-[[(2S)-2-cyclohexyl-1-oxo-2-[(pyrazinylcarbonyl)amino]ethyl]amino]-3,3-dimethyl-1-oxobutyl]-N-[(1R)-1-[2-(cyclopropylamino)-1,2-dioxoethyl]butyl]octahydro-cyclopenta[c]pyrrole-1-carboxamide] | about 98% | 2.11 (−1.24) hr | 80.6% | 131 min | more prominent | 45 min |  | 
CCC[C@H](NC(=O)[C@@H]1[C@H]2CCC[C@H]2CN1C(=O)[C@@H](NC(=O)[C@@H](NC(=O)c1cnccn1)C1CCCCC1)C(C)(C)C)C(=O)C(=O)NC1CC1 [S isomer at C*, (1S,3aR,6aS)-2-[(2S)-2-[[(2S)-2-cyclohexyl-1-oxo-2-[(pyrazinylcarbonyl)amino]ethyl]amino]-3,3-dimethyl-1-oxobutyl]-N-[(1S)-1-[2-(cyclopropylamino)-1,2-dioxoethyl]butyl]octahydro-cyclopenta[c]pyrrole-1-carboxamide] |  |  | 42.9% | 216 min |  | 104 min | 0.14 µg·h/mL | 2.52 (±2.19) hr
